Data taken from publication PMC3678025, “Structure of the Tubulin/FtsZ-Like Protein TubZ from Pseudomonas Bacteriophage ΦKZ” (Journal of Molecular Biology, 2013).

Columns and labels:
[1] = molecular target: T1, ΦKZ TubZ-His6 (Pseudomonas phage phiKZ, UniProt Q8SDC3); experiment: X-ray crystal structure; type: binding; conditions: 2.0 Å monomer (GDP retained through purification, 150 mM Tris-Cl pH 8.0) and 1.7 Å protofilament (crystallised with GTPγS, pH 5.5); GTPase active site
T1 construct: gene PHIKZ039; used for crystallography
T1 sequence (Q8SDC3 whole entry): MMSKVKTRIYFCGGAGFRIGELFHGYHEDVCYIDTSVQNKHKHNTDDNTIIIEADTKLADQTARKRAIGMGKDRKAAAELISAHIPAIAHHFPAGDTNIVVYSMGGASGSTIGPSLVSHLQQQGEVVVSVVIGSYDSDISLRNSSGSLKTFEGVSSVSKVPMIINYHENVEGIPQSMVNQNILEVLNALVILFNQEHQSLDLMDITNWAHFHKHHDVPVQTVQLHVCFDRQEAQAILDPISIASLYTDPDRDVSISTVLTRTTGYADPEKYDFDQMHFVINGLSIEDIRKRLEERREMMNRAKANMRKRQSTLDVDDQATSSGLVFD

[2] = molecular target: T2, Wild-type ΦKZ TubZ (Pseudomonas phage phiKZ, UniProt Q8SDC3); experiment: […]° light scattering of polymerisation, electron cryo-microscopy; type: biochemical; conditions: 2 μM protein, 20 or 200 μM GTP, 200 mM KCl, 5 mM MgCl2, pH 8.0, 25 °C; induces polymerisation
T2 construct: gene PHIKZ039; used for light scattering and electron microscopy
T2 sequence (Q8SDC3 whole entry): as above

Question: Which X-ray crystal structure [1] does the source give for Nc1nc2c(ncn2[C@@H]2O[C@H](COP(=O)(O)OP(=O)(O)O)[C@@H](O)[C@H]2O)c(=O)[nH]1 [GDP] here?
Answer: The X-ray crystal structure was “The GTPase active site within the subunit was occupied by GDP, which was retained”.

Question: For Nc1nc2c(ncn2[C@@H]2O[C@H](COP(=O)(O)OP(=O)(O)OP(=O)(O)O)[C@@H](O)[C@H]2O)c(=O)[nH]1 [GTP], which “90° light scattering of polymerisation, electron cryo-microscopy” value [2] is on record?
Answer: The value was “ΦKZ TubZ filaments proved extremely dynamic in the presence of GTP”.
